From US20220125777A1, “COMBINATION OF A CDK INHIBITOR AND A PIM INHIBITOR” (Pfizer Inc., priority 2019, published 2022)

Test system: HR+/HER2− advanced or metastatic breast cancer
Assay: Study 2: progression-free survival by PIM2 mRNA expression, palbociclib plus fulvestrant vs placebo plus fulvestrant
Format: in vivo, human
Details: Study 2, control arm, fulvestrant alone (placebo plus fulvestrant 500 mg IM); FIG. 2A
Method: Study 2 was conducted in HR+/HER2− advanced or metastatic breast cancer (MBC) patients who had progressed on prior endocrine therapy. Pre- and peri-menopausal subjects were given an LHRH agonist. Subjects were treated with palbociclib (125 mg QD, 3/1 schedule) plus fulvestrant (500 mg IM on Days 1 and 15 of Cycle 1, and then Day 1 of each subsequent 28-day cycle) or placebo (3/1 schedule QD) plus fulvestrant on the same schedule. In both studies, the primary outcome was PFS as assessed by the investigator.
Tumor samples were analyzed to identify potential predictive biomarkers for palbociclib plus letrozole treatment. Using the EdgeSeq Oncology BM Panel, mRNA expression was assessed for 2534 cancer-related genes. […] Targeted capture sequencing was used to quantitate RNA expression levels of gene targets. […]
The primary outcome was PFS as assessed by the investigator.
Tumor samples were analyzed by EdgeSeq Oncology BM Panel (HTG Molecular Diagnostics; https://www.htgmolecular.com/assays/obp) for mRNA expression assessment of 2534 cancer-related genes. […]
The EdgeSeq system used was validated and used targeted capture sequencing to quantitate RNA expression levels of gene targets in formalin-fixed paraffin-embedded tumor tissues. […]

For C[C@]12CC[C@@H]3c4ccc(O)cc4C[C@@H](CCCCCCCCC[S+]([O-])CCCC(F)(F)C(F)(F)F)[C@H]3[C@@H]1CC[C@@H]2O (stereo partly shown) [fulvestrant], the “PFS of subjects having low PIM2 expression versus higher PIM2 expression” value was “shorter PFS”.
